Experimental data from US20200236940A1, “2-(HET)ARYL-SUBSTITUTED FUSED HETEROCYCLE DERIVATIVES AS PESTICIDES” (Bayer Aktiengesellschaft, priority 2017, published 2020).

How the values were obtained:
Type in all cases: in vivo
Myzus persicae [1] = test: Myzus persicae oral test; conditions: 120 h, application rate 4 ppm, after 5 days, read-out: efficacy
Experimental: Myzus persicae—Oral Test Solvent: 100 parts by weight of acetone To produce a suitable active ingredient formulation, 1 part by weight of active ingredient is dissolved with the stated parts by weight of solvent and made up to the desired concentration with water. 50 μl of the active ingredient formulation are transferred into microtitre plates and made up to a final volume of 200 μl with 150 μl of IPL41 insect medium (33%+15% sugar). Subsequently, the plates are sealed with parafilm, which a mixed population of green peach aphids (Myzus persicae) within a second microtitre plate is able to puncture and imbibe the solution. After 5 days, the efficacy in % is determined. 100% means that all the aphids have been killed; 0% means that no aphids have been killed.

Phaedon cochleariae [2] = test: Phaedon cochleariae spray test, Chinese cabbage leaf discs; conditions: foliar, 168 h, application rate 100 g/ha, after 7 days, larvae, read-out: efficacy
Experimental: Phaedon cochleariae—Spray Test
(§1) To produce a suitable active ingredient formulation, 1 part by weight of active ingredient is dissolved with the specified parts by weight of solvent and made up to the desired concentration with water containing an emulsifier concentration of 1000 ppm. To produce further test concentrations, the formulation is diluted with emulsifier-containing water.
After 7 days, the efficacy in % is determined. 100% means that all the beetle larvae have been killed; 0% means that no beetle larvae have been killed.

Nilaparvata lugens = Nilaparvata lugens spray test (NILALU); conditions: 96 h, 500 g of ai/ha, 4 dat, read-out: % efficacy
Experimental: Nilaparvata lugens—Spray Test (NILALU)
as §1, with “water. If the addition of ammonium salts or/and penetrants is required, these are each added in a concentration of 1000 ppm to the formulation solution.” for “water.”
Rice plants (Oryza sativa) are sprayed with an active ingredient formulation of the desired concentration and then populated with larvae of the brown planthopper (Nilaparvata lugens).
[…], the efficacy in % is determined. 100% means that all of the planthoppers have been killed; 0% means that none of the planthoppers have been killed.

Myzus persicae [3] = test: Myzus persicae spray test (MYZUPE), Chinese cabbage leaf discs; conditions: foliar, 120 h
Experimental: Myzus persicae—Spray Test [table] To produce a suitable active ingredient formulation, 1 part by weight of active ingredient is dissolved with the specified parts by weight of solvent and made up to the desired concentration with water containing an emulsifier concentration of 1000 ppm. To produce further test concentrations, the formulation is diluted with emulsifier-containing water. Discs of Chinese cabbage leaves (Brassica pekinensis) infested by all stages of the green peach aphid (Myzus persicae) are sprayed with an active ingredient formulation of the desired concentration. After 5 days, the efficacy in % is determined. 100% means that all the aphids have been killed; 0% means that no aphids have been killed. Myzus persicae—Spray Test (MYZUPE) [table] To produce a suitable active ingredient formulation, 1 part by weight of active ingredient is dissolved with the specified parts by weight of solvent and made up to the desired concentration with water containing an emulsifier concentration of 1000 ppm. To produce further test concentrations, the formulation is diluted with emulsifier-containing water. Discs of Chinese cabbage leaves (Brassica pekinensis) infested by all stages of the green peach aphid (Myzus persicae) are sprayed with an active ingredient formulation of the desired concentration. After the desired period of time, the efficacy in % is determined. 100% means that all the aphids have been killed; 0% means that no aphids have been killed.

Ctenocephalides felis = Ctenocephalides felis oral test; conditions: application rate 100 ppm, after 2 days
Experimental: Ctenocephalides felis—Oral Test Solvent: dimethyl sulfoxide To produce a suitable active ingredient formulation, 10 mg of active ingredient are mixed with 0.5 ml of dimethyl sulfoxide. Dilution with citrated cattle blood gives the desired concentration. About 20 unfed adult cat fleas (Ctenocephalides felis) are placed into a chamber which is closed at the top and bottom with gauze. A metal cylinder whose bottom end is closed with parafilm is placed onto the chamber. The cylinder contains the blood/active ingredient formulation, which can be imbibed by the fleas through the parafilm membrane. After 2 days, the kill in % is determined. 100% means that all of the fleas have been killed; 0% means that none of the fleas have been killed.

Lucilia cuprina = Lucilia cuprina test; conditions: after 2 days, L1 larvae
Experimental: Lucilia cuprina Test Solvent: dimethyl sulfoxide To produce a suitable active ingredient formulation, 10 mg of active ingredient are mixed with 0.5 ml of dimethyl sulfoxide, and the concentrate is diluted with water to the desired concentration. About 20 L1 larvae of the Australian sheep blowfly (Lucilia cuprina) are transferred into a test vessel containing minced horsemeat and the active ingredient formulation of the desired concentration. After 2 days, the kill in % is determined. 100% means that all the larvae have been killed; 0% means that no larvae have been killed.

Meloidogyne incognita = Meloidogyne incognita test; conditions: application rate 20 ppm, after 14 days, formation of galls on lettuce
Experimental: Meloidogyne incognita Test Solvent: 125.0 parts by weight of acetone To produce a suitable active ingredient formulation, 1 part by weight of active compound is mixed with the stated amount of solvent and the concentrate is diluted to the desired concentration with water. Vessels are filled with sand, active compound solution, an egg/larvae suspension of the southern root-knot nematode (Meloidogyne incognita) and lettuce seeds. The lettuce seeds germinate and the plants develop. The galls develop on the roots. After 14 days, the nematicidal efficacy in % is determined by the formation of galls. 100% means that no galls were found; 0% means that the number of galls on the treated plants corresponds to the untreated control.

Spodoptera frugiperda [4] = test: Spodoptera frugiperda spray test, maize leaf discs; conditions: application rate 100 g/ha, after 7 days, caterpillars
Experimental: Spodoptera frugiperda—Spray Test [table] To produce a suitable active ingredient formulation, 1 part by weight of active ingredient is dissolved with the specified parts by weight of solvent and made up to the desired concentration with water containing an emulsifier concentration of 1000 ppm. To produce further test concentrations, the formulation is diluted with emulsifier-containing water. Leaf discs of maize (Zea mays) are sprayed with an active ingredient formulation of the desired concentration and, after drying, populated with caterpillars of the armyworm (Spodoptera frugiperda). After 7 days, the efficacy in % is determined. 100% means that all the caterpillars have been killed; 0% means that no caterpillar has been killed.

Phaedon cochleariae [5] = test: Phaedon cochleariae spray test (PHAECO), cabbage leaves; conditions: 168 h, 7 dat, read-out: % efficacy
Experimental: Phaedon cochleariae—Spray Test (PHAECO)
Solvent: 14 parts by weight of dimethylformamide
Emulsifier: alkylaryl polyglycol ether
as §1, with “water. If the addition of ammonium salts or/and penetrants is required, these are each added in a concentration of 1000 ppm to the formulation solution.” for “water.”
Cabbage leaves (Brassica oleracea) are sprayed with an active ingredient formulation of the desired concentration and populated with larvae of the mustard beetle (Phaedon cochleariae).
After the desired time, the kill in % is determined. 100% means that all the beetle larvae have been killed; 0% means that no beetle larvae have been killed.

Spodoptera frugiperda [6] = test: Spodoptera frugiperda drench test (SPODFR D); conditions: soil, 336 h, 14 dat, read-out: % efficacy
Experimental: Spodoptera frugiperda—Drench Test (SPODFR D) [table] To produce a suitable active ingredient formulation, 1 part by weight of active ingredient is mixed with the specified amounts of solvent and emulsifier, and the concentrate is diluted with water to the desired concentration, it being necessary to take into account the volume of soil which is drenched. It should be ensured that a concentration of 40 ppm of emulsifier in the soil is not exceeded. To produce further test concentrations, water is used for dilution. Maize plants (Zea mays) in pots of soil are watered with an active ingredient formulation of the desired concentration and infected with caterpillars of the armyworm (Spodoptera frugiperda). After the desired time, the kill in % is determined. 100% means that all caterpillars have been killed; 0% means that none of the caterpillars have been killed.

Molecule `CCS(=O)(=O)c1ccc(-n2ncn(-c3ccc(Cl)cc3)c2=O)nc1-c1nc2cc(C(F)(F)F)nc(C)c2n1C` [Example I-001] has a pest or weed control at 4 ppm (Myzus persicae [1]) of 90%, a pest or weed control at 100 g/ha (Phaedon cochleariae [2]) of 100% and an Emax at 500 g/ha (Nilaparvata lugens) of 60%. The Emax at 20 g/ha (Myzus persicae [3]; MYZUPE, 20 g of ai/ha, 5 dat, read-out: % efficacy) was 90%, the Emax at 100 g/ha (Myzus persicae [3]; MYZUPE, 100 g of ai/ha, 5 dat, read-out: % efficacy) was 90% and the pest or weed control at 20 g/ha (Myzus persicae [3]; application rate 20 g/ha, after 5 days, read-out: efficacy) was 90%. For the same molecule, the pest or weed control at 100 g/ha (Myzus persicae [3]; application rate 100 g/ha, after 5 days, read-out: efficacy) was 90%, the “efficacy (kill)” value (Ctenocephalides felis) was 100% and the “efficacy (kill)” value (Lucilia cuprina; application rate 20 ppm) was 100%. For the same molecule, the “efficacy (kill)” value (Lucilia cuprina; application rate 100 ppm) was 100%, the nematicidal efficacy (Meloidogyne incognita) was 90% and the efficacy (Spodoptera frugiperda [4]) was 100%. It also gave an Emax at 0.8 ppm (Phaedon cochleariae [5]) of 100% and an Emax at 20 ppm (Spodoptera frugiperda [6]) of 60%.
